Measurements from patent US12605346B2, “Composition containing curcumin compound, and method for producing same” (THERABIOPHARMA INC., priority 2020, dated 2026).

Columns and labels:
[1] = normal conditions (temperature 20° C. to 35° C., humidity 40% to 70%) till 6 months; cited from earlier work
[2] = Plasma curcumin concentration (AUC and Cmax) after administration to rats; assay type: in vivo
Description: The plasma curcumin concentration was measured by the following method using heparin plasma obtained by collecting about 0.2 mL of blood from the jugular vein of test animals (rats) without anesthesia at 0.25 hours, 0.5 hours, 1 hour, 2 hours, 4 hours, and/or 6 hours after start of administration.
To 20 μL of the collected plasma, 100 μL of 0.1 M acetate buffer (pH 5.0) and 10 μL of β-glucuronidase solution (about 68,000 units/mL) were added. The mixture was kept at 37° C. for 1 hour. Subsequently, 10 μL of 50% (v/v) methanol containing 20 ng/mL of Mepronil, an internal standard, and 0.5 mL of chloroform were added. The mixture was stirred with a vortex mixer for 1 minute and then mixed with an ultrasonic generator for 15 minutes to perform an extraction process. The extraction process liquid was separated into a chloroform layer and an aqueous layer by centrifugation (13,000×g, 5 min, room temperature). The separated aqueous layer was further subjected to an extraction process in which extraction was performed by adding chloroform in the same manner as described above. Next, the chloroform layer was collected and dried to solid by distilling the solvent off using a vacuum centrifugal concentrator, and 100 μL of 50% (v/v) methanol was added thereto, followed by centrifugation (13,000×g, 5 min, room temperature). The supernatant was then collected.
The plasma curcumin concentration was measured by analyzing 2 μL of the prepared supernatant using LC-MS/MS (available from Bruker). […]
The calibration curve used to quantitatively determine the curcumin content in the sample was obtained by performing measurement under the same conditions as described above using various standard solutions (curcumin concentration: 0.9 to 225 ng/mL) prepared by adding 10 μL of a 50% ethanol solution containing 20 ng/mL of Mepronil to 90 μL of a 50% (v/v) methanol solution (curcumin standard solution) containing 1.0, 2.0, 3.9, 7.8, 15.6, 31.3, 62.5, 125, or 250 ng/mL of curcumin.

Row | Cmax ([2]; rat, oral, plasma curcumin after β-glucuronidase treatment) | AUC ([2]; rat, oral, plasma curcumin after β-glucuronidase treatment, 0 to 6 hrs) | Cmax relative to Comparative Example 1 (value in parentheses) ([2]; ratio to commercial curcumin formulation (Comparative Example 1 = 1.0)) | SMILES | Storage stability of sample stored in a container [1]
1 | – | – | – | COc1cc(/C=C/C(=O)/C=C(O)/C=C/c2ccc(O)c(OC)c2)ccc1O [amorphous curcumin, curcumin] | generally stable
2 | 85 ng/mL | 292 ng·h/mL | 0.84 times | COc1cc(/C=C/C(=O)/C=C(O)/C=C/c2ccc(O)c(OC)c2)ccc1O [Comparative Example 2, curcumin] | –
